Values of other authors as cited in US10603302B2, “Water soluble flavonoids” (priority 2017, dated 2020).

Conditions: background statement

solubility in water: slightly soluble in water
SMILES: O=C1c2c(O)cc(O)cc2OC(c2ccc(O)c(O)c2)C1O (stereo not shown) [Taxifolin, 5,7,31,41-tetrahydroxyflavanol,dihydroquercetin]
